What was measured:
[1] = biological target: T1, Recombinant Human LTA4 Hydrolase (Homo sapiens, UniProt P09960); test: Recombinant Human LTA Hydrolase Assay (in vitro LTA hydrolase enzyme assay); format: biochemical; settings: 250 ng rhLTA4 hydrolase; 10 minutes preincubation and 10 minutes reaction at room temperature; pH 7.4
T1 construct: made in house; host or cells: Spodoptera frugiperda Sf-9 cells (baculovirus)
T1 sequence (P09960 1-611): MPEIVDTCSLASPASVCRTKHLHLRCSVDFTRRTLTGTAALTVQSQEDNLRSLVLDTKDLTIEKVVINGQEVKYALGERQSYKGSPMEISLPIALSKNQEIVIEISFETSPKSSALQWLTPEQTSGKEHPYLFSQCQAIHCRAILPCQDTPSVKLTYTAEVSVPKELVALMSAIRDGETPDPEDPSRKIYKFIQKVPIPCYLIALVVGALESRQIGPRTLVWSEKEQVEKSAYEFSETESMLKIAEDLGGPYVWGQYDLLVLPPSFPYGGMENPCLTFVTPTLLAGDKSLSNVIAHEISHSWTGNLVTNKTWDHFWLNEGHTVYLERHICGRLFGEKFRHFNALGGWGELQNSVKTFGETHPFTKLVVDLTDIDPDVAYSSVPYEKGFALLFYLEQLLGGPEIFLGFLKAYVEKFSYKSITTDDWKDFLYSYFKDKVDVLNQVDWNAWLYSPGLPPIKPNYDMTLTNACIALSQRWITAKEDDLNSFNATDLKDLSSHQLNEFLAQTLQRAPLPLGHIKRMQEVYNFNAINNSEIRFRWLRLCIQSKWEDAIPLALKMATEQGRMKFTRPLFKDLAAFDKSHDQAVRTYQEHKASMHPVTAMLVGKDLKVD
Method: (§1) One or more of three different assays, (1) an in vitro LTA hydrolase enzyme assay, (2) a human whole blood assay utilizing calcium ionophore stimulation, and (3) a murine ex vivo assay utilizing calcium ionophore stimulation were employed to determine the level of LTA hydrolase inhibitor activity.
Recombinant Human LTA Hydrolase Assay for LTA Hydrolase Inhibitor Activity
Compounds of the present invention were tested for LTA hydrolase inhibitor activity against recombinant human LTA hydrolase (rhLTAH). […] Briefly, LTA hydrolase encoding DNA was amplified by polymerase chain reaction using a pair of oligonucleotide primers based on the nucleotide sequence from the 5'-end, and the complement of the 3'-end, of the coding region of the LTA hydrolase gene, the nucleotide sequence of which gene is known. […] A λgt11 human placental cDNA library (Clonetech, Palo Alto, Calif.) provided the nucleic acid template.
One or more predetermined amounts of a compound of the invention were incubated in assay buffer (0.1 M potassium phosphate, 5 mg/ml fatty acid free BSA, 10% DMSO, Ph 7.4) for 10 minutes at room temperature with 250 ng of recombinant hLTA4 H to allow binding, if any, between the enzyme and inhibitor. The stock enzyme solution was 1 mg/m. LTA4 hydrolase, 50 Mm Tris, Ph 8.0, 150 Mm NaCl, 2.5 Mm beta-mercaptoethanol, 50% glycerol. The specific activity of the enzyme was about 650 Nmoles/min/mg. LTA4 (i.e., substrate) was prepared from the methyl ester of LTA4 (Biomol, Inc., Plymouth Meeting, Pa.) by treating the methyl ester with 30 molar equivalents of LiOH at room temperature for 18 hours. The LTA4 substrate in its free acid form was kept frozen at -80° C. until needed. LTA4 (free acid) was thawed and diluted in assay buffer (minus DMSO) to a concentration of 350 ng/ml and 25 μl (8ng) of LTA4 substrate was added to the reaction mixture (total volume of reaction mixture=200 μl at time zero. Each reaction was carried out at room temperature for 10 minutes. The reaction was stopped by diluting 25 μl of the reaction mixture with 500 μl of the assay buffer without DMSO. […] was quantified in the diluted sample by a commercially available enzyme-linked immunoassay [Caymen Chemical Col. Ann Arbor, Mich.] using the method recommended in the manufacturer's instructions and compared to the amount of […] produced in a negative control (i.e., essentially identical conditions except without addition of an inhibitor compound). The IC50 was routinely calculated from the data produced.

[2] = test system: LTB4 production in calcium ionophore stimulated human blood; test: Inhibition of calcium ionophore-induced LTB4 production in human blood (human whole blood assay); format: cell-based; settings: human blood diluted 1:4; 15 minutes preincubation at 37° C.; calcium ionophore 20 mcg/ml, 10 minutes
Text: as §1
LTB4 and Thromboxane Production by Calcium Ionophore Stimulated Human Blood for LTB4 Hydrolase Inhibitor Activity
One or more concentrations of the leukotriene A4 hydrolase inhibitor compounds being tested were prepared (diluted in DMSO) and 2 μl added and gently mixed with the diluted whole blood. After incubating for 15 minutes at 37° C. in a humidified incubator, calcium ionophore […] (Sigma Chemical Co., St. Louis, Mo.) was added to a final concentration of 20 mcg/ml and the incubation continued under the same conditions for an additional 10 minutes to allow LTB4 formation. The reaction was terminated by centrifugation (833 g, 10 minutes at 4° C.) and supernatant were analyzed for LTB4 and thromboxane by commercially available enzyme-linked immunoassays (Caymen Chemical Co., Ann Arbor, Mich.) according to the manufacturer's instructions. The IC50 of each test compound was determined from the amount of inhibition of LTB4 production as compared to an essentially identical assay in which no inhibitor compound was present.

[3] = test system: LTB4 production in calcium ionophore stimulated mouse blood; test: Murine ex vivo LTB4 inhibition, calcium ionophore stimulated mouse blood after oral gavage; format: in vivo, mouse (adult male outbred mice); settings: 1 h, blood collected 60 minutes after administration, ionophore A23187 20 mcg/ml, read-out: Murine Ex Vivo LTB4 Inhibition, % I LTB4 at 1 hour after administration of 10 mg/kg
Text: as §1
Ex Vivo LTB4 and Thromboxane Production by Calcium lonophore Stimulated Mouse Blood for […] Inhibitor Activity
Leukotriene A4 hydrolase inhibitor compounds of the present invention were diluted to a predetermined concentration in phosphate buffered saline containing 2% DMSO and 1% Tween 80. The compounds were administered by oral gavage to adult male outbred mice weighing approximately 20-30 gm at a dose of 10 mg/kg body weight. (Compounds given at a dose of 50 mg/kg body weight are designated in following Table by the symbol, *) Sixty (60) minutes after administration of an LTA4 inhibitor compound of the invention, blood was collected (into heparin-containing tubes) from the retroorbital sinus. […] The mixture was incubated for 10 minutes at 37° C. in a humidified incubator. The reaction was terminated by centrifugation (833 g. 10 minutes at 4° C.). Supernatant were analyzed for LTB4 and thromboxane by commercially available enzyme-linked immunoassays [Caymen Chemical Co., Ann Arbor, Mich.] in accordance with the manufacturer's instructions. The percent inhibition was determined by comparison to animals treated identically except that the solution administered by oral gavage was devoid of inhibitor compound.

LTA4 hydrolase = settings: background statement; cited from earlier work

Structure (SMILES) | IC50 [1] [nM] | IC50 [2] [nM] | inhibition at 10 mg/kg [3] [%] | LTA4 hydrolase inhibitory activity (LTA4 hydrolase)
CCOC(=O)C1CCN(CCOc2ccc(Oc3ccc(-c4ccccc4)cc3)cc2)CC1 [Example 11] | 340 | 720 | 90 | –
O=C(O)C1CCN(CCOc2ccc(Oc3ccc(-c4ccccc4)cc3)cc2)CC1 [Example 12] | – | 220 | 87 | –
CN(CCCOc1ccc(Oc2ccc(-c3nccs3)cc2)cc1)CCC(=O)O [Example 17] | 950 | 72 | 87 | –
CCN(CCCOc1ccc(Oc2ccc(-c3ncco3)cc2)cc1)CCC(=O)O [Example 19] | 340 | 240 | 93 | –
C[C@H](CS)C(=O)N1CCC[C@H]1C(=O)O [captopril] | – | – | – | exhibit LTA4 hydrolase inhibitory activity
CC(C)C[C@H](NC(=O)[C@@H](O)[C@H](N)Cc1ccccc1)C(=O)O [bestatin] | – | – | – | exhibit LTA4 hydrolase inhibitory activity
CN(CCCOc1ccc(Oc2ccc(-c3ncco3)cc2)cc1)CCC(=O)O [Example 18] | 27 | 190 | 94 | –
CN(CCCOc1ccc(Oc2ccc(-c3ccccc3)cc2)cc1)CCC(=O)O [Example 14] | – | 190 | 78 | –
c1cc(Oc2ccc(C3=NCCO3)cc2)ccc1OCCN1CCCC1 [Example 10] | 590 | 550 | 83 | –
c1ccc(-c2ccc(Oc3ccc(OCCN4CCCC4)cc3)cc2)cc1 [Example 8] | 6.6 | 140 | 57 | –
c1coc(-c2ccc(Oc3ccc(OCCN4CCCC4)cc3)cc2)n1 [Example 7] | – | 550 | 93 | –
COC(=O)CCN(C)CCCOc1ccc(Oc2ccc(-c3ccccc3)cc2)cc1 [Example 13] | 550 | 790 | 63 | –

Reference: patent US6265433A, “LTA4 hydrolase inhibitors” (G. D. Searle & Company, priority 1999, dated 2001)
